From the supplement of paper PMC10307832

Assays:
Assay in all cases: relative viability (nuclei count vs DMSO), 5 days (fraction); higher = more cells survive
[1] = tested on: A-427
How it was run: (§1)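 Each reported value is a median over duplicate plates. It expresses relative viability: treated-well nuclei count divided by vehicle-well nuclei count. Lung cancer cell lines in 1536-well plates were dosed by pin tool a day after seeding, alone with one drug or with a fixed anchor-drug dose plus five library-drug doses (not always all listed) in √10 steps, and nuclei were counted after 5 days.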

[2] = tested on: HCC-15
How it was run: as §1

[3] = tested on: HCC-78
How it was run: as §1

[4] = tested on: HOP-62
How it was run: as §1

[5] = tested on: LC-2-ad
How it was run: as §1

[6] = tested on: LXF-289
How it was run: as §1

[7] = tested on: NCI-H1734
How it was run: as §1

[8] = tested on: NCI-H1755
How it was run: as §1

[9] = tested on: NCI-H1792
How it was run: as §1

[10] = tested on: NCI-H1915
How it was run: as §1

[11] = tested on: NCI-H1975
How it was run: as §1

[12] = tested on: NCI-H2126
How it was run: as §1

[13] = tested on: NCI-H2228
How it was run: as §1

[14] = tested on: NCI-H2342
How it was run: as §1

[15] = tested on: NCI-H2347
How it was run: as §1

[16] = tested on: NCI-H358
How it was run: as §1

[17] = tested on: NCI-H522
How it was run: as §1

[18] = tested on: NCI-H647
How it was run: as §1

[19] = tested on: PC-3 [JPC-3]
How it was run: as §1

[20] = tested on: RERF-LC-KJ
How it was run: as §1

[21] = tested on: SK-LU-1
How it was run: as §1

[22] = tested on: SW 1573
How it was run: as §1

CCN(CC)CCCCNc1ncc2cc(-c3cc(OC)cc(OC)c3)c(NC(=O)NC(C)(C)C)nc2n1 + Cc1nc(Nc2ncc(C(=O)Nc3c(C)cccc3Cl)s2)cc(N2CCN(CCO)CC2)n1 [Dasatinib] (partner 0.075 µM) gave a relative viability ([1]; first compound 0.01 µM) of 0.749, a relative viability ([1]; first compound 0.03162 µM) of 0.647 and a relative viability ([1]; first compound 0.1 µM) of 0.924. It also gave a relative viability ([1]; first compound 0.3162 µM) of 0.646, a relative viability ([1]; first compound 1 µM) of 0.565 and a relative viability ([2]; first compound 0.01 µM) of 0.613. It also gave a relative viability ([2]; first compound 0.03162 µM) of 0.7, a relative viability ([2]; first compound 0.1 µM) of 0.681 and a relative viability ([2]; first compound 0.3162 µM) of 0.748. The relative viability ([2]; first compound 1 µM) was 0.554, the relative viability ([3]; first compound 0.01 µM) was 0.46 and the relative viability ([3]; first compound 0.03162 µM) was 0.361. It also gave a relative viability ([3]; first compound 0.1 µM) of 0.493, a relative viability ([3]; first compound 0.3162 µM) of 0.421 and a relative viability ([3]; first compound 1 µM) of 0.364. For the same molecule, the relative viability ([4]; first compound 0.01 µM) was 0.67, the relative viability ([4]; first compound 0.03162 µM) was 0.726 and the relative viability ([4]; first compound 0.1 µM) was 0.828. It also gave a relative viability ([4]; first compound 0.3162 µM) of 0.707, a relative viability ([4]; first compound 1 µM) of 0.417 and a relative viability ([5]; first compound 0.01 µM) of 0.575. The relative viability ([5]; first compound 0.03162 µM) was 0.679, the relative viability ([5]; first compound 0.1 µM) was 0.73 and the relative viability ([5]; first compound 0.3162 µM) was 0.664. It also gave a relative viability ([5]; first compound 1 µM) of 0.344, a relative viability ([6]; first compound 0.01 µM) of 0.209 and a relative viability ([6]; first compound 0.03162 µM) of 0.249. It also gave a relative viability ([6]; first compound 0.1 µM) of 0.266, a relative viability ([6]; first compound 0.3162 µM) of 0.167 and a relative viability ([6]; first compound 1 µM) of 0.0987. For the same molecule, the relative viability ([7]; first compound 0.01 µM) was 0.508, the relative viability ([7]; first compound 0.03162 µM) was 0.507 and the relative viability ([7]; first compound 0.1 µM) was 0.521. It also gave a relative viability ([7]; first compound 0.3162 µM) of 0.543, a relative viability ([7]; first compound 1 µM) of 0.436 and a relative viability ([8]; first compound 0.01 µM) of 0.394. It also gave a relative viability ([8]; first compound 0.03162 µM) of 0.464, a relative viability ([8]; first compound 0.1 µM) of 0.518 and a relative viability ([8]; first compound 0.3162 µM) of 0.621. The relative viability ([8]; first compound 1 µM) was 0.207, the relative viability ([9]; first compound 0.01 µM) was 0.734 and the relative viability ([9]; first compound 0.03162 µM) was 0.849. For the same molecule, the relative viability ([9]; first compound 0.1 µM) was 0.837, the relative viability ([9]; first compound 0.3162 µM) was 0.671 and the relative viability ([9]; first compound 1 µM) was 0.475. The relative viability ([10]; first compound 0.01 µM) was 0.303, the relative viability ([10]; first compound 0.03162 µM) was 0.306 and the relative viability ([10]; first compound 0.1 µM) was 0.361. The relative viability ([10]; first compound 0.3162 µM) was 0.286, the relative viability ([10]; first compound 1 µM) was 0.297 and the relative viability ([11]; first compound 0.01 µM) was 0.369. It also gave a relative viability ([11]; first compound 0.03162 µM) of 0.403, a relative viability ([11]; first compound 0.1 µM) of 0.458 and a relative viability ([11]; first compound 0.3162 µM) of 0.452. The relative viability ([11]; first compound 1 µM) was 0.313, the relative viability ([12]; first compound 0.01 µM) was 0.586 and the relative viability ([12]; first compound 0.03162 µM) was 0.603. It also gave a relative viability ([12]; first compound 0.1 µM) of 0.648, a relative viability ([12]; first compound 0.3162 µM) of 0.77 and a relative viability ([12]; first compound 1 µM) of 0.53. The relative viability ([13]; first compound 0.01 µM) was 0.586, the relative viability ([13]; first compound 0.03162 µM) was 0.589 and the relative viability ([13]; first compound 0.1 µM) was 0.793. For the same molecule, the relative viability ([13]; first compound 0.3162 µM) was 0.536, the relative viability ([13]; first compound 1 µM) was 0.431 and the relative viability ([14]; first compound 0.01 µM) was 0.296. For the same molecule, the relative viability ([14]; first compound 0.03162 µM) was 0.345, the relative viability ([14]; first compound 0.1 µM) was 0.321 and the relative viability ([14]; first compound 0.3162 µM) was 0.332. The relative viability ([14]; first compound 1 µM) was 0.31, the relative viability ([15]; first compound 0.01 µM) was 0.149 and the relative viability ([15]; first compound 0.03162 µM) was 0.315. The relative viability ([15]; first compound 0.1 µM) was 0.39, the relative viability ([15]; first compound 0.3162 µM) was 0.288 and the relative viability ([15]; first compound 1 µM) was 0.31. The relative viability ([16]; first compound 0.01 µM) was 0.169, the relative viability ([16]; first compound 0.03162 µM) was 0.127 and the relative viability ([16]; first compound 0.1 µM) was 0.157. For the same molecule, the relative viability ([16]; first compound 0.3162 µM) was 0.147, the relative viability ([16]; first compound 1 µM) was 0.198 and the relative viability ([17]; first compound 0.01 µM) was 0.862. For the same molecule, the relative viability ([17]; first compound 0.03162 µM) was 1.01, the relative viability ([17]; first compound 0.1 µM) was 1 and the relative viability ([17]; first compound 0.3162 µM) was 0.879. It also gave a relative viability ([17]; first compound 1 µM) of 0.79, a relative viability ([18]; first compound 0.01 µM) of 0.189 and a relative viability ([18]; first compound 0.03162 µM) of 0.174. For the same molecule, the relative viability ([18]; first compound 0.1 µM) was 0.209, the relative viability ([18]; first compound 0.3162 µM) was 0.218 and the relative viability ([18]; first compound 1 µM) was 0.0989. For the same molecule, the relative viability ([19]; first compound 0.01 µM) was 1.05, the relative viability ([19]; first compound 0.03162 µM) was 1.07 and the relative viability ([19]; first compound 0.1 µM) was 1.06. The relative viability ([19]; first compound 0.3162 µM) was 1.08, the relative viability ([19]; first compound 1 µM) was 0.909 and the relative viability ([20]; first compound 0.01 µM) was 0.783. For the same molecule, the relative viability ([20]; first compound 0.03162 µM) was 1, the relative viability ([20]; first compound 0.1 µM) was 0.843 and the relative viability ([20]; first compound 0.3162 µM) was 0.947. The relative viability ([20]; first compound 1 µM) was 0.738, the relative viability ([21]; first compound 0.01 µM) was 0.158 and the relative viability ([21]; first compound 0.03162 µM) was 0.163. It also gave a relative viability ([21]; first compound 0.1 µM) of 0.177, a relative viability ([21]; first compound 0.3162 µM) of 0.194 and a relative viability ([21]; first compound 1 µM) of 0.13. For the same molecule, the relative viability ([22]; first compound 0.01 µM) was 0.355, the relative viability ([22]; first compound 0.03162 µM) was 0.537 and the relative viability ([22]; first compound 0.1 µM) was 0.457. For the same molecule, the relative viability ([22]; first compound 0.3162 µM) was 0.482 and the relative viability ([22]; first compound 1 µM) was 0.326.
